From patent US20200305483A1, “SOURNESS ENHANCERS COMPRISING A CYCLOHEXANECARBOXYLIC ACID” (Firmenich SA, priority 2017, published 2020) come the findings set out here.

Format in all cases: in vivo
Test [1] is described as follows: Sensory evaluation of sweet, sour and astringent intensities, model system comprising malic acid. The protocol:
A sucrose (5% by weight) and malic acid (0.05% by weight) solution was prepared and used for evaluating the sourness enhancement effect of a cyclohexanecarboxylic acid having the structure: The evaluation consisted of (i) a test solution of 50 ppm of the cyclohexanecarboxylic acid in the sucrose/malic acid solution; and (ii) a control solution comprising the sucrose/malic acid solution only. 27 trained panelists were asked to evaluate the sweet, sour and astringent intensities for each sample on a linear scale from 0 to 10, where 0 corresponded to “no taste” and 10 corresponded to “too strong to taste”.

The nature of test [2]: Paired comparison study (2-AFC) of sourness, model system comprising malic acid. Conditions: 50 ppm in 5% sucrose / 0.05% malic acid, pH 3.1 (±0.02), 95% confidence level. As to the method: A sucrose (5% by weight) and malic acid (0.05% by weight) solution was prepared and used for evaluating the sourness enhancement effect of a cyclohexanecarboxylic acid having the structure: The evaluation consisted of (i) a test solution of 50 ppm of the cyclohexanecarboxylic acid in the sucrose/malic acid solution; and (ii) a control solution comprising the sucrose/malic acid solution only. In a repeat experiment using 41 trained subjects, 41 subjects were asked to select the more sour sample in each pair, in a paired comparison study (2-AFC). The pH of the samples was 3.1 (±0.02). 28 out of 41 subjects found the sample containing compound I at 50 ppm was more sour at a 95% confidence level.

Test [3] can be described thus: Paired comparison of sourness, model system comprising tartaric acid. Conditions: 50 ppm in 5% sucrose / 0.05% tartaric acid, pH 2.9 (±0.02), 95% confidence level. As to the method:
A sucrose (5% by weight) and tartaric acid (0.05% by weight) solution was prepared and used for evaluating the sourness enhancement effect of a cyclohexanecarboxylic acid having the structure: The evaluation consisted of (i) a test solution of 50 ppm of the cyclohexanecarboxylic acid in the sucrose/tartaric acid solution; and (ii) a control solution comprising the sucrose/tartaric acid solution only. 41 subjects were asked to select out more sour sample in each pair. The pH of the samples was 2.9 (±0.02).

The nature of test [4]: Paired comparison of sourness, model system comprising citric and lactic acid. Conditions: 50 ppm in 5% sucrose / 0.07% citric acid / 0.09% lactic acid, pH 2.9 (±0.02), 95% confidence level. The protocol: A sucrose (5% by weight), citric acid (0.07% by weight), and lactic acid (0.09% by weight) solution was prepared and used for evaluating the sourness enhancement effect of a cyclohexanecarboxylic acid having the structure: The evaluation consisted of (i) a test solution of 50 ppm of the cyclohexanecarboxylic acid in the sucrose/citric-lactic acid solution; and (ii) a control solution comprising the sucrose/citric-lactic acid solution only. 41 subjects were asked to select out more sour sample in each pair. The pH of the samples was 2.9 (±0.02).

Test [5] can be described thus: Sensory evaluation of sweet, sour and astringent intensities, model system comprising citric acid. The protocol: A sucrose (5% by weight), and citric acid (0.05% by weight) solution was prepared and used for evaluating the sourness enhancement effect of a cyclohexanecarboxylic acid having the structure: The evaluation consisted of (i) a test solution of 50 ppm of the cyclohexanecarboxylic acid in the sucrose/citric acid solution; and (ii) a control solution comprising the sucrose/citric acid solution only. 28 trained panelists were asked to evaluate the sweet, sour and astringent intensities for each sample on a linear scale from 0 to 10, where 0 correlated with “no taste” and 10 correlated with “too strong to taste”.

[6] abbreviates: 50 ppm (by weight) in sucrose/malic acid solution, versus reference sample.
[7] abbreviates: 50 ppm (by weight) in sucrose/citric acid solution, versus reference sample.

For `O=C(/C=C/c1ccc(O)c(O)c1)O[C@@H]1C[C@](O)(C(=O)O)C[C@@H](O)[C@H]1O` [compound I], in test [1] (setting [6]), the “enhancement of astringency intensity” value is on record as 24.0% and the “enhancement of sourness intensity” value is 22.5%. Besides, in test [1] (50 ppm in 5% sucrose / 0.05% malic acid, 27 trained panelists, linear scale 0 to 10, reference sample 4.0, 95% confidence level), the “sourness intensity (tested sample)” value was found to be 4.9. Further, the “astringency intensity (tested sample)” value in test [1] (50 ppm in 5% sucrose / 0.05% malic acid, 27 trained panelists, scale 0 to 10, reference sample 2.5, 99% confidence level) amounted to 3.1. Also, the “sweet intensity, change versus reference sample” value in test [1] (50 ppm in 5% sucrose / 0.05% malic acid, pH value also unchanged) is “Without changing”. In addition, the “subjects who found the sample containing the compound more sour” value in test [2] is given as 28 out of 41 subjects. The “subjects who found that adding the compound increased sourness” value in test [3] is listed as 28 out of 41 subjects. Also, the “subjects who found that adding the compound increased sourness” value in test [4] was 29 out of 41 subjects. Besides, in test [5] (setting [7]), the “change of astringency intensity” value worked out at 28.0% and the “decrease of sweetness intensity” value came to 11.6%. Also, in test [5] (50 ppm in 5% sucrose / 0.05% citric acid, 28 trained panelists, scale 0 to 10, reference sample 2.5), the “astringency intensity (tested sample)” value was 3.2. Moreover, the “sweetness intensity (tested sample)” value in test [5] (50 ppm in 5% sucrose / 0.05% citric acid, 28 trained panelists, scale 0 to 10, reference sample 4.3, 95% confidence level) came out at 3.8. Besides, in test [5] (50 ppm in 5% sucrose / 0.05% citric acid, pH value also unchanged), the “sourness intensity, change versus reference sample” value is “Without changing”.
